Experimental data published in ChEMBL document CHEMBL1145732, “Non-imidazole heterocyclic histamine H3 receptor antagonists” (Bioorg Med Chem Lett, 2003).

Legend:
[1] = Half-life was determined; type: ADME; conditions: human
[2] = molecular target: Histamine H3 receptor (Homo sapiens, UniProt Q9Y5N1); assay: Binding affinity towards human Histamine H3 receptor using [3H]N-methyl-histamine as radioligand
[3] = tested on: Caco-2; assay: Permeability was evaluated using Caco-2 cells; type: functional, cell-based; conditions: Homo sapiens
[4] = organism: Rattus norvegicus; assay: Compound was evaluated in a functional assay for determining rat pA2; conditions: read-out: pA2 (converted)
[5] = tested on: SK-N-MC; assay: Compound was evaluated in a functional assay against […] cells stably transfected with the human H3 receptor; type: cell-based; conditions: read-out: pA2 (converted)

Histamine H3 receptor, sequence (Q9Y5N1 whole entry): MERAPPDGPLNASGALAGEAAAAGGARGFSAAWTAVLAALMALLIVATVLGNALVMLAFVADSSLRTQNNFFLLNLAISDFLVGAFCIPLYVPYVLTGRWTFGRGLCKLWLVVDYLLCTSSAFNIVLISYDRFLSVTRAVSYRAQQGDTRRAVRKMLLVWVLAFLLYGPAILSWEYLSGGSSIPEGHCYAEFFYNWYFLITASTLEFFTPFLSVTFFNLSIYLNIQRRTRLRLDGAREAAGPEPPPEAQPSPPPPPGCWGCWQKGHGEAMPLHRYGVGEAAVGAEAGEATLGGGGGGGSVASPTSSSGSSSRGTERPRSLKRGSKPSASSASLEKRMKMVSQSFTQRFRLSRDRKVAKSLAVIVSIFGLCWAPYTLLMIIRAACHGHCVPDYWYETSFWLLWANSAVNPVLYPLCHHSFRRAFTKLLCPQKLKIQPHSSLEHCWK

SMILES	Ki [2] [nM]	further results
Cc1c(-c2ccc(OCCCN3CCCCC3)cc2)cc2ccccn12	2	half-life [1]: 54 min
CS(=O)(=O)n1c(-c2ccc(OCCCN3CCCCC3)cc2)cc2ccccc21	16	–
c1ccn2cc(-c3ccc(OCCCN4CCCCC4)cc3)cc2c1	13	half-life [1]: 10 min; Papp [3]: 0.14 ×10⁻⁶ cm/s; Kb [4]: 19.5 nM; Kb [5]: 3.16 nM
Cc1ccn2cc(-c3ccc(OCCCN4CCCCC4)cc3)cc2c1	40	–
Cc1c(-c2ccc(OCCCN3CCCCC3)cc2)cn2ccccc12	16	–
c1cc(OCCCN2CCCCC2)cc(-c2cc3ccccn3c2)c1	308	–
Cc1cc(OCCCN2CCCCC2)ccc1-c1cn2ccccc2c1C	11	–
CCc1c(-c2ccc(OCCCN3CCCCC3)cc2)cn2ccccc12	19	–
CCc1c(-c2ccc(OCCCN3CCCCC3)cc2)cc2ccccn12	5	–
Cc1cc(OCCCN2CCCCC2)ccc1-c1cc2ccccn2c1	152	–
Cc1cccc2cc(-c3ccc(OCCCN4CCCCC4)cc3)cn12	46	–
c1ccc(-c2cc3ccccn3c2)c(OCCCN2CCCCC2)c1	236	–

Further compounds by falling Ki [2], results first:

Ki [2] [nM]	SMILES	further results
47	c1ccc2[nH]c(-c3ccc(OCCCN4CCCCC4)cc3)cc2c1	–
40	c1ccc(-c2c(-c3ccc(OCCCN4CCCCC4)cc3)cn3ccccc23)cc1	–
40	Cc1cccn2cc(-c3ccc(OCCCN4CCCCC4)cc3)cc12	–
37	c1ccc(CCc2c(-c3ccc(OCCCN4CCCCC4)cc3)cn3ccccc23)cc1	–
28	Cc1ccc2cc(-c3ccc(OCCCN4CCCCC4)cc3)cn2c1	–
11	c1ccn2nc(-c3ccc(OCCCN4CCCCC4)cc3)cc2c1	–
